Results from patent US9155784B2, “Anti-TNF-α therapy for the mucopolysaccharidoses and other lysosomal disorders” (Icahn School of Medicine at Mount Sinai, priority 2011, dated 2015).

Legend:
Assay type in all cases: in vivo, rat
TNF-α and RANKL = test: Serum immunoassays of TNF-α and RANKL in treated MPS VI rats; conditions: MPS VI rats treated 8 months i.v., end of study (37 weeks), vs untreated MPS VI
Experimental: Naglazyme® (recombinant human N-acetylgalactosamine-4-sulfatase) was obtained from the BioMarin Pharmaceutical Inc., and CNTO1081 was from Centocor Ortho Biotech Inc. Twenty one-day-old (pre-symptomatic) MPS VI rats were divided into two groups (n=8/group), and subjected to either ERT or combined ERT/anti-TNF-α therapy. Animals receiving ERT alone were injected i.v. (tail vein) weekly with 1 mg/kg of Naglazyme®. Those receiving combined therapy also were injected i.v. with 3 mg/kg of CNTO10181 twice per week (every third day). Treatment was carried out for a total of 32 weeks. Serum was collected every 2 weeks for TNF-α and RANKL analysis (see infra). For each group, the treated animals were sacrificed 2 weeks after the last injection (37 weeks of age). Age-matched normal and untreated MPS VI rats were used as controls throughout the study.
Serum TNF-α and RANKL in age-matched normal, untreated and treated MPS VI rats were assessed by immunoassays using rat ultrasensitive Biosource Elisa kits (Invitrogen and ALPCO Diagnostics) according to the manufacturers' protocols. All assays were performed in triplicate.
Twenty one-day-old MPS VI rats were treated by either ERT (1 mg/kg once per week), or by a combined protocol of ERT and anti-TNF-α therapy (3 mg/kg, twice per week). Both were administered intravenously (tail vein). […]

TNF-α = TNF-α immunostaining of articular cartilage, MPS VI rats; conditions: MPS VI rats treated 8 months, vs untreated
Experimental: Femora from 37-week-old normal, untreated MPS VI and treated MPS VI rats were fixed, embedded, sectioned, and stained with toluidine blue and H & E. Immunohistochemical studies were performed as well. For immunohistochemistry, sections were fixed with 4% paraformaldehyde/PBS, permeabilized with 0.5% Triton-X-100, blocked, and incubated overnight at 4° C. with primary rabbit polyclonal anti-mouse collagen type IIA1 (rabbit polyclonal […], Santa Cruz Biotechnology) and TNF-α antibody (goat polyclonal sc-1348, Santa Cruz Biotechnology). After several rinses with PBS, visualization was accomplished using a fluorescent secondary antibody, donkey anti-goat IgG-Cy-3 (711-165-152, Jackson Laboratory). Nuclei were stained with 1 mg/ml bis-benzimide Hoechst dye (Sigma-Aldrich) for 10 min, rinsed, and sections were mounted with an anti-bleaching mounting media. Slides were visualized and photographed with a confocal laser-scanning microscope (Carl Zeiss 510 Meta).

MPS VI rats [1] = test: Accelerating rotarod (locomotor function), MPS VI rats, ERT and combined treatment; conditions: 10 RPM, maximum time 180 seconds; untreated MPS VI mean 70 seconds
Description: Age-matched 37-week-old normal and untreated MPS VI and treated MPS VI rats were placed on an accelerating Rotarod series 8 (IITC Life Science) for evaluation as described previously (Cotugno et al., “Different Serum Enzyme Levels are Required to Rescue the Various Systemic Features of the Mucopolysaccharidoses,” Hum. Gene Ther. 21:555-69 (2010), which is hereby incorporated by reference in its entirety). Animals were primed on the rod for two consecutive days prior to the actual recording. The rotarod was set at increasing speeds from 10 to 30 rpm over 3 minutes, and an average of the latency to fall off from the rod was recorded. Results were analyzed by one-way analysis of variance (ANOVA) with the variable group.

MPS VI rats [2] = test: Gait (motility) analysis from paw prints, MPS VI rats
Experimental: The fore and hind paws of treated and control animals were stained with two different colors using non-toxic dye. The rats were trained to walk through a tunnel for two consecutive days, leaving their paw prints on blotting paper. On the third day several parameters were measured; distance between the left and right front paws in the longitudinal direction, the angle that was formed, and the distance between the front and hind right paws. For statistical analysis, group differences were assessed using multivariate analyses of variance (MANOVAs), followed by post hoc Bonferroni adjustments for all time points tested.

MPS VI rats [3] = test: Trachea measurements and gross morphology, MPS VI rats
Experimental: Limb and trachea measurements were taken at the end of the study (37 weeks of age). The length of each femur was measured from the microCT images using the Microview software. The greater trochanter was used as the proximal margin of the femur, whereas the extent of the distal condyles was considered the distal margin. Thus, the length of each femur was computed roughly along the vertical axis of the bone. For validation, the physical femora and tibia lengths, as well as the width of the tracheas, was measured with a digital caliper. The mean of the two treatment groups (ERT and combined ERT/CNTO1081) were compared using standard student t test analysis.

recombinant human N-acetylgalactosamine-4-sulfatase [ERT]
serum RANKL level (TNF-α and RANKL): significantly reduced
serum TNF-α level (TNF-α and RANKL): significantly reduced
TNF-α immunostaining in the articular cartilage (TNF-α): modestly reduced
time on the rotating bar (MPS VI rats [1]): 180 s
distance for the front paw per step (MPS VI rats [2]; untreated MPS VI 2.8 cm): 4.2 cm
distance the animals moved their rear paws (MPS VI rats [2]; untreated MPS VI 4.9 cm): not changed
angle of the hind paw movement (MPS VI rats [2]; untreated MPS VI 60°): 45 °
tracheal abnormalities (thickened, collapsed tracheas), gross inspection (MPS VI rats [3]; 37 weeks of age): not altered
trachea cross-sectional area (MPS VI rats [3]; 37 weeks, untreated 2.9±0.6, normal 7.5±0.8): 3.6±0.5 mm^2
